Data as given in US20070249620A1, “Urea Derivative” (priority 2004, published 2007).

Columns and labels:
mouse DGAT1 = molecular target: T1, mouse DGAT1 (Mus musculus, UniProt Q9Z2A7); assay: DGAT1 inhibitory effect test (microsome fraction, [14C]-oleoyl-CoA, triglyceride radioactivity by TLC); assay type: biochemical; conditions: 0.5 h; concentration of the test compound 0.1 μg/ml; mouse DGAT1 microsomes, 23° C., 30 minutes; read-out: Inhibitory ratio
T1 construct: made in house; host or cells: insect cells (High Five, Sf9, Sf21, etc.), baculovirus expression system (Invitrogen)
T1 sequence (Q9Z2A7 1-498): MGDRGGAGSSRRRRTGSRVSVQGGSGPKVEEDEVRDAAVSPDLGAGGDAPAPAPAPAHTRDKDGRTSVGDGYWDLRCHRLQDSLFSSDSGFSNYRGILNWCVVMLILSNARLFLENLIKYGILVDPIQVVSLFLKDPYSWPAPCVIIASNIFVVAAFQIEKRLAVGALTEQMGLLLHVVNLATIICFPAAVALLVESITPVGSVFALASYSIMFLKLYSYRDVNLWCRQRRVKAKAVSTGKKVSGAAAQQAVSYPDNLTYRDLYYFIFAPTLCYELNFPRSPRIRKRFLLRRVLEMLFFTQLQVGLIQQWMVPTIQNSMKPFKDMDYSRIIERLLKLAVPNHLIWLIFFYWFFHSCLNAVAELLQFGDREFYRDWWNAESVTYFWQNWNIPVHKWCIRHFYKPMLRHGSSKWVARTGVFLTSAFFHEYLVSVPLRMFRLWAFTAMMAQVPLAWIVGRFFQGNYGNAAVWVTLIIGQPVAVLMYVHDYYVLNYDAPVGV
Experimental: The cDNA which encodes mouse DGAT1 was cloned from a mouse cDNA library by polymerase chain reaction (hereinafter referred to as “PCR”) and introduced into an insect cell virus vector (baculovirus expression system, Invitrogen). After insect cells (High Five, Sf9, Sf21, etc., Invitrogen) were infected with the virus, the cells were collected in buffer A [0.1M sucrose, 50 mM KCl, 40 mM potassium phosphate (pH 7.4), 30 mM EDTA, 1% Protease inhibitor cocktail (SIGMA, P-8340)] and crushed with a Polytron homogenizer. The supernatant obtained by subjecting the homogenate to low speed centrifugal processing (10,000 ×g, 30 minutes) was further subjected to higher-speed centrifugal processing (100,000 ×g, 60 minutes) and the precipitate was resuspended in buffer A as the microsome fraction and used as DGAT1 enzyme. The DGAT1 enzyme was divided into small volumes and stored at −80° C.
(2) DGAT1 Inhibitory Effect Test
The reaction liquid of the following composition [175 mM Tris-HCl (pH 8.0), 8 mM MgCl2, 1 mg/ml BSA, 0.5 mM 1,2-dioleoyl-sn-glycerol (EtOH solution of 10-fold concentration, 10% added), 30 μM[14C]-oleoyl-CoA (about 50 mCi/mmol), 0.5% triton X-100, DGAT1 enzyme (10 μg) obtained in Test Example 1(1), test compound or vehicle (DMSO/MeOH, 7:3 solution, 5% added), total volume 50 μl] was incubated at room temperature (23° C.) for 30 minutes. A reaction terminating solution (70 μl) consisting of isopropanol/1-heptane/water (80:20:2, v/v/v) was added to the reaction solution and stirred, and subsequently stirred with water (30 μl) and 1-heptane (100 μl). The 1-heptane layer (50 μl) was spotted onto a TLC plate and developed with a developing solvent consisting of 1-hexane/diethyl ether/acetic acid (85:15:1, v/v/v). Radioactivity of triglyceride fraction was quantified by BAS2000 bio image analyzer (Fuji Film) and the inhibitory effect of the test compounds was calculated by the following formula through comparison with control. Here, radioactivity at no reaction (0 minutes incubation) was assumed as background. Inhibitory ratio=100−[(Radioactivity when test compound was added)−(Background)]/[(Radioactivity by control)−(Background)]×100

## CCOc1ccc(C)cc1NC(=O)Nc1ccc(N2CCN(C(=O)Nc3ccccc3C)CC2)cc1 [Example 84, 4-{4-[3-(2-ethoxy-5-methyl-phenyl)-ureido]-phenyl}-piperazine-1-carboxylic acid o-tolylamide]
other
  melting point: 190 to 192 °C
Mouse DGAT1
  inhibition at 0.1 µg/mL: ≥ 50%

## CCOc1ccc(C)cc1NC(=O)Nc1ccc(N2CCN(C(=O)Nc3c(C)cccc3Cl)CC2)cc1 [Example 85, 4-{4-[3-(2-ethoxy-5-methyl-phenyl)-ureido]-phenyl}-piperazine-1-carboxylic acid (2-chloro-6-methyl-phenyl)-amide]
other
  melting point: 157 to 159 °C
Mouse DGAT1
  inhibition at 0.1 µg/mL: ≥ 50%

## COc1ccc(C)cc1NC(=O)Nc1ccc(N2CCN(C(=O)Nc3ccc(Cl)cc3C(F)(F)F)CC2)cc1 [Example 86, 4-{4-[3-(2-methoxy-5-methyl-phenyl)-ureido]-phenyl}-piperazine-1-carboxylic acid (4-chloro-2-trifluoromethyl-phenyl)-amide]
other
  melting point: 186 to 187 °C
Mouse DGAT1
  inhibition at 0.1 µg/mL: ≥ 50%

## COc1ccc(C)cc1NC(=O)Nc1ccc(N2CCN(C(=O)Nc3ccc(F)cc3C(F)(F)F)CC2)cc1 [Example 87, 4-{4-[3-(2-methoxy-5-methyl-phenyl)-ureido]-phenyl}-piperazine-1-carboxylic acid (4-fluoro-2-trifluoromethyl-phenyl)-amide]
other
  melting point: 172 to 174 °C
Mouse DGAT1
  inhibition at 0.1 µg/mL: ≥ 50%

## COc1ccc(C)cc1NC(=O)Nc1ccc(N2CCN(C(=O)Nc3c(C)cc(C)cc3C)CC2)cc1 [Example 88, 4-{4-[3-(2-methoxy-5-methyl-phenyl)-ureido]-phenyl}-piperazine-1-carboxylic acid (2,4,6-trimethyl-phenyl)-amide]
other
  melting point: 215 to 217 °C
Mouse DGAT1
  inhibition at 0.1 µg/mL: ≥ 50%

## CCOc1ccc(F)cc1NC(=O)Nc1ccc(N2CCN(C(=O)Nc3ccccc3C(F)(F)F)CC2)cc1 [Example 89, 4-{4-[3-(2-ethoxy-5-fluoro-phenyl)-ureido]-phenyl}-piperazine-1-carboxylic acid (2-trifluoromethyl-phenyl)-amide]
other
  melting point: 197 to 199 °C
Mouse DGAT1
  inhibition at 0.1 µg/mL: ≥ 50%

## CCOc1ccc(F)cc1NC(=O)Nc1ccc(N2CCN(C(=O)Nc3ccccc3C)CC2)cc1 [Example 90, 4-{4-[3-(2-ethoxy-5-fluoro-phenyl)-ureido]-phenyl}-piperazine-1-carboxylic acid o-tolylamide]
other
  melting point: 186 to 187 °C
Mouse DGAT1
  inhibition at 0.1 µg/mL: ≥ 50%

## CCOc1ccc(F)cc1NC(=O)Nc1ccc(N2CCN(C(=O)Nc3c(C)cccc3Cl)CC2)cc1 [Example 91, 4-{4-[3-(2-ethoxy-5-fluoro-phenyl)-ureido]-phenyl}-piperazine-1-carboxylic acid (2-chloro-6-methyl-phenyl)-amide]
other
  melting point: 197 to 199 °C
Mouse DGAT1
  inhibition at 0.1 µg/mL: ≥ 50%

## CCOc1ccc(F)cc1NC(=O)Nc1ccc(N2CCN(C(=O)Nc3c(C)cccc3C)CC2)cc1 [Example 92, 4-{4-[3-(2-ethoxy-5-fluoro-phenyl)-ureido]-phenyl}-piperazine-1-carboxylic acid (2,6-dimethyl-phenyl)-amide]
other
  melting point: 205 to 206 °C
Mouse DGAT1
  inhibition at 0.1 µg/mL: ≥ 50%

## CCOc1ccc(F)cc1NC(=O)Nc1ccc(N2CCN(C(=O)Nc3c(F)cccc3C(F)(F)F)CC2)cc1 [Example 93, 4-{4-[3-(2-ethoxy-5-fluoro-phenyl)-ureido]-phenyl}-piperazine-1-carboxylic acid (2-fluoro-6-trifluoromethyl-phenyl)-amide]
other
  melting point: 153 to 155 °C
Mouse DGAT1
  inhibition at 0.1 µg/mL: ≥ 50%

## CCOc1ccc(F)cc1NC(=O)Nc1ccc(N2CCN(C(=O)Nc3c(Cl)cccc3Cl)CC2)cc1 [Example 94, 4-{4-[3-(2-ethoxy-5-fluoro-phenyl)-ureido]-phenyl}-piperazine-1-carboxylic acid (2,6-dichloro-phenyl)-amide]
other
  melting point: 212 to 214 °C
Mouse DGAT1
  inhibition at 0.1 µg/mL: ≥ 50%

## COc1ccc(F)cc1NC(=O)Nc1ccc(N2CCN(C(=O)Nc3ccccc3C(F)(F)F)CC2)cc1 [Example 96, 4-{4-[3-(5-fluoro-2-methoxy-phenyl)-ureido]-phenyl}-piperazine-1-carboxylic acid (2-trifluoromethyl-phenyl)-amide]
other
  melting point: 229 to 230 °C
Mouse DGAT1
  inhibition at 0.1 µg/mL: ≥ 50%

## COc1ccc(F)cc1NC(=O)Nc1ccc(N2CCN(C(=O)Nc3ccccc3C)CC2)cc1 [Example 97, 4-{4-[3-(5-fluoro-2-methoxy-phenyl)-ureido]-phenyl}-piperazine-1-carboxylic acid o-tolylamide]
other
  melting point: 222 to 224 °C
Mouse DGAT1
  inhibition at 0.1 µg/mL: ≥ 50%

## COc1ccc(F)cc1NC(=O)Nc1ccc(N2CCN(C(=O)Nc3c(C)cccc3Cl)CC2)cc1 [Example 98, 4-{4-[3-(5-fluoro-2-methoxy-phenyl)-ureido]-phenyl}-piperazine-1-carboxylic acid (2-chloro-6-methyl-phenyl)-amide]
other
  melting point: 240 to 241 °C
Mouse DGAT1
  inhibition at 0.1 µg/mL: ≥ 50%

## COc1ccc(F)cc1NC(=O)Nc1ccc(N2CCN(C(=O)Nc3c(C)cccc3C)CC2)cc1 [Example 99, 4-{4-[3-(5-fluoro-2-methoxy-phenyl)-ureido]-phenyl}-piperazine-1-carboxylic acid (2,6-dimethyl-phenyl)-amide]
other
  melting point: 226 to 228 °C
Mouse DGAT1
  inhibition at 0.1 µg/mL: ≥ 50%

## COc1ccc(F)cc1NC(=O)Nc1ccc(N2CCN(C(=O)Nc3c(F)cccc3C(F)(F)F)CC2)cc1 [Example 100, 4-{4-[3-(5-fluoro-2-methoxy-phenyl)-ureido]-phenyl}-piperazine-1-carboxylic acid (2-fluoro-6-trifluoromethyl-phenyl)-amide]
other
  melting point: 181 to 183 °C
Mouse DGAT1
  inhibition at 0.1 µg/mL: ≥ 50%

## COc1ccc(F)cc1NC(=O)Nc1ccc(N2CCN(C(=O)Nc3c(Cl)cccc3Cl)CC2)cc1 [Example 101, 4-{4-[3-(5-fluoro-2-methoxy-phenyl)-ureido]-phenyl}-piperazine-1-carboxylic acid (2,6-dichloro-phenyl)-amide]
other
  melting point: 235 to 237 °C
Mouse DGAT1
  inhibition at 0.1 µg/mL: ≥ 50%

## CCOc1ccc(Cl)cc1NC(=O)Nc1ccc(N2CCN(C(=O)Nc3ccccc3C(F)(F)F)CC2)cc1 [Example 102, 4-{4-[3-(5-chloro-2-ethoxy-phenyl)-ureido]-phenyl}-piperazine-1-carboxylic acid (2-trifluoromethyl-phenyl)-amide]
other
  melting point: 219 to 221 °C
Mouse DGAT1
  inhibition at 0.1 µg/mL: ≥ 50%

## CCOc1ccc(Cl)cc1NC(=O)Nc1ccc(N2CCN(C(=O)Nc3c(C)cccc3Cl)CC2)cc1 [Example 103, 4-{4-[3-(5-chloro-2-ethoxy-phenyl)-ureido]-phenyl}-piperazine-1-carboxylic acid (2-chloro-6-methyl-phenyl)-amide]
other
  melting point: 159 to 161 °C
Mouse DGAT1
  inhibition at 0.1 µg/mL: ≥ 50%

## CCOc1ccc(Cl)cc1NC(=O)Nc1ccc(N2CCN(C(=O)Nc3c(C)cccc3C)CC2)cc1 [Example 104, 4-{4-[3-(5-chloro-2-ethoxy-phenyl)-ureido]-phenyl}-piperazine-1-carboxylic acid (2,6-dimethyl-phenyl)-amide]
other
  melting point: 144 to 146 °C
Mouse DGAT1
  inhibition at 0.1 µg/mL: ≥ 50%

## CCOc1ccc(Cl)cc1NC(=O)Nc1ccc(N2CCN(C(=O)Nc3c(F)cccc3C(F)(F)F)CC2)cc1 [Example 105, 4-{4-[3-(5-chloro-2-ethoxy-phenyl)-ureido]-phenyl}-piperazine-1-carboxylic acid (2-fluoro-6-trifluoromethyl-phenyl)-amide]
other
  melting point: 146 to 148 °C
Mouse DGAT1
  inhibition at 0.1 µg/mL: ≥ 50%

## CCOc1ccc(Cl)cc1NC(=O)Nc1ccc(N2CCN(C(=O)Nc3ccc(OC)cc3C)CC2)cc1 [Example 106, 4-{4-[3-(5-chloro-2-ethoxy-phenyl)-ureido]-phenyl}-piperazine-1-carboxylic acid (4-methoxy-2-methyl-phenyl)-amide]
other
  melting point: 210 to 213 °C
Mouse DGAT1
  inhibition at 0.1 µg/mL: ≥ 50%
